Like-named read-outs stand apart in the source and are kept apart here.
Molecular target: T1, human 5-HT3A receptor (Homo sapiens, UniProt P46098)
T1 construct: host or cells: Xenopus laevis oocytes injected with in vitro transcribed mRNA
T1 sequence (P46098 24-478): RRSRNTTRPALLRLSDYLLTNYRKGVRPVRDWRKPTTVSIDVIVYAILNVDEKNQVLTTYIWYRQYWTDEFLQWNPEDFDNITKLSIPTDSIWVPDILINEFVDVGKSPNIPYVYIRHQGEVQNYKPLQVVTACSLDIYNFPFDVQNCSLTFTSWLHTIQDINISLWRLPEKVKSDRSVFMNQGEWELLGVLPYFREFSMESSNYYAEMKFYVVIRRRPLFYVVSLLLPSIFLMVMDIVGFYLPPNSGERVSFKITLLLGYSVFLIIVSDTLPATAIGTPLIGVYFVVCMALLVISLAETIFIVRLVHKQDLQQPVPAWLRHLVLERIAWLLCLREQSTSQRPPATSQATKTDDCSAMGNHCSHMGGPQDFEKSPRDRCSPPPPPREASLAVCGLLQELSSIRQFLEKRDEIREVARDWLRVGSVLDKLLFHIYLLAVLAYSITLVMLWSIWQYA
Test: cell-based
Assay type: cell-based
Conditions: for inhibition of voltage ramp current activated by 5-HT: 100 µM 5-HT and EC
Experimental: Human 5-hydroxytryptamine (serotonin) receptor 3A cDNA (Genebank number: BC004453) was obtained from OriGene (Rockville, MD, USA). Figure 1A represents the chemical structure of two ergot alkaloids, EG and EC, obtained from Sigma-Aldrich (St. Louis, MO, USA). These ergot alkaloids were diluted in bath solution after dissolving in dimethyl sulfoxide (DMSO) for use as stock solutions. The final treatment concentration of DMSO was less than 0.01%. Xenopus laevis frogs were obtained from the Korean Xenopus Resource Center for Research (KXRCR000001, Chuncheon, Gangwondo, Korea), and other agents were purchased from Sigma-Aldrich.
To isolate oocytes, female Xenopus laevis were put into a container filled with ice and left for about one hour. When the blood vessels contracted and fell into a state similar to hibernation, the abdomen was incised, and the ovaries were removed and cut into small pieces in Ca^2+-free OR2 solution (82.5 mM NaCl, 2.5 mM KCl, 1 mM MgCl2, and 5 mM HEPES, pH 7.4) with 2 mg/mL collagenase. After a 2 h agitation to digest the follicle membranes, isolated oocytes in stages Ⅴ and Ⅵ were selected and washed repeatedly. The selected oocytes were maintained in ND96 incubation solution (96 mM NaCl, 2 mM KCl, 1.8 mM CaCl2, 1 mM MgCl2, 5 mM HEPES, 2.5 mM sodium pyruvate, and 50 µg/mL gentamycin, pH 7.4) at 16–18 °C. The solution containing the oocytes was changed twice a day and stored in a shaking incubator. Under the microscope, the end of a glass capillary was broken and fitted with a 20 µm diameter needle and filled with mineral oil, discharging air bubbles from the tip. When the Xenopus oocytes were ready for injection, 50 ng of mRNA was injected with a nanoliter injector (Drummond Scientific, Vernon Hills, IL, USA). The recording was started after two days of sufficient shaking incubation in ND96 solution. Surgery, microinjections, and the other handling of Xenopus laevis followed the standard protocols.
The oocytes in which mRNA was expressed during the incubation period allowed for the estimation of channel or receptor properties for observing drug and ligand potential interactions using a two-electrode voltage clamp (OC-725C; Warner Instruments, Hamden, CT, USA) and Digidata (1322A; Molecular Devices, Sunnyvale, CA, USA). The two-electrode voltage clamp had voltage and current electrodes that stably maintained the potential and delivered the transmembrane potential and high current. […] A computer transferred the converted output amplitude of the voltage clamp amplifiers to an input digital converter using pClamp 10 software (Axon Instruments, Union City, CA, USA). The voltage and current electrodes were filled with 3 M KCl (0.3–0.7 MΩ) and analyzed at a −80 mV holding potential. The oocytes were placed in the chamber and exposed to a ND96 solution at a flow rate of 2 mL per minute. In the electrophysiological experiments, the voltage ramp recording was performed at room temperature, and a current from −80 to +60 mV was applied to determine the current and voltage relationships. Inward peak traces of the 5-HT3A receptor and voltage ramp traces were converted to a value through Clampfit 9.0 (Molecular Devices, San Jose, CA, USA).
In the experiments, all data were represented as the mean ± SEM (standard error of the mean) of the 5-HT-stimulated inward peak in the 5-HT3A receptors. […] All curves plotted through the Hill equation were generated using Origin Pro 7.0 (OriginLab, Northampton, MA, USA). The significance of differences between the control and chanoclavine treatment was determined according to the p-value in the Student’s t-test. p-values of less than 0.05 were considered statistically significant.

For `CN[C@@H]1Cc2c[nH]c3cccc(c23)[C@H]1/C=C(\C)CO` [chanoclavine], the inhibition at 10 µM (10 µM compound with 100 µM 5-HT, −80 mV, read-out: inhibition of I5-HT) was 4 ± 3.8%, the inhibition at 30 µM (30 µM compound with 100 µM 5-HT, −80 mV, read-out: inhibition of I5-HT) was 7.9 ± 4.1% and the inhibition at 100 µM (100 µM chanoclavine, wild type, read-out: Inhibition Percentage (%)) was 42.5 ± 5.7%. The inhibition at 100 µM (100 µM compound with 100 µM 5-HT, −80 mV, read-out: inhibition of I5-HT) was 42.5 ± 9.7%, the inhibition at 200 µM (200 µM compound with 100 µM 5-HT, −80 mV, read-out: inhibition of I5-HT) was 61.6 ± 6.1% and the inhibition at 300 µM (300 µM compound with 100 µM 5-HT, −80 mV, read-out: inhibition of I5-HT) was 75 ± 4.5%. The “Imax of normalized 5-HT concentration-response current” value (5-HT 1 to 100 µM with 30 µM EC, −80 mV) was 94.6 ± 24.4, the “Imax of normalized 5-HT concentration-response current” value (5-HT 1 to 100 µM with 100 µM EC, −80 mV) was 60 ± 2.2 and the “inhibition of voltage ramp current activated by 5-HT” value (“inhibition … by 5-HT” for short) (+30 mV) was 47.9 ± 3.4%. For the same compound, the “inhibition … by 5-HT” value (+60 mV) was 49.5 ± 4%, the “maximum inhibition (Imax)” value (Hill fit, co-application with 100 µM 5-HT, −80 mV) was 83.6 ± 12.6% and the IC50 (co-application with 5-HT, read-out: half-maximal inhibitory response concentration (IC50) for block of 5-HT-induced 5-HT3A response) was 107 µM. The “current relative to the control group” value (competing at the same rate as 5-HT) was “about 50%”, the “manner of regulation of 5-HT3A-receptor channel activity” value (varied 5-HT concentration, fixed 30 or 100 µM chanoclavine) was “competitive” and the “inhibition … by 5-HT” value (−30 mV) was 40.9 ± 1.1%. The “effect of compound alone (without 5-HT)” value (−80 mV holding potential, data not shown) was “no change”.
